Source: US9206130B2, “Quinoline derivatives as AXL kinase inhibitors” (Max-Planck-Gesellschaft zur Förderung der Wissenschaften …, priority 2008, dated 2015)

Columns and labels:
[1] = target: T1, wild type AXL (wtAXL) receptor tyrosine kinase (Homo sapiens, UniProt P30530); assay: NIH-3T3-AXL cellular tyrosine kinase assay (inhibition of AXL phosphorylation); format: cell-based; conditions: AXL phosphorylation in NIH-3T3-AXL (clone 22) cells, serum-depleted, 2 h with compound, immunoprecipitation / anti-phosphotyrosine blot
T1 construct: WtAXL cDNA was cloned into vector pLXSN(ESK) and transfected into Phoenix E packaging cells; expressed in transfected cells; host or cells: NIH3T3 N7 mouse fibroblasts, retrovirally infected (clone 22)
T1 sequence (P30530 26-894): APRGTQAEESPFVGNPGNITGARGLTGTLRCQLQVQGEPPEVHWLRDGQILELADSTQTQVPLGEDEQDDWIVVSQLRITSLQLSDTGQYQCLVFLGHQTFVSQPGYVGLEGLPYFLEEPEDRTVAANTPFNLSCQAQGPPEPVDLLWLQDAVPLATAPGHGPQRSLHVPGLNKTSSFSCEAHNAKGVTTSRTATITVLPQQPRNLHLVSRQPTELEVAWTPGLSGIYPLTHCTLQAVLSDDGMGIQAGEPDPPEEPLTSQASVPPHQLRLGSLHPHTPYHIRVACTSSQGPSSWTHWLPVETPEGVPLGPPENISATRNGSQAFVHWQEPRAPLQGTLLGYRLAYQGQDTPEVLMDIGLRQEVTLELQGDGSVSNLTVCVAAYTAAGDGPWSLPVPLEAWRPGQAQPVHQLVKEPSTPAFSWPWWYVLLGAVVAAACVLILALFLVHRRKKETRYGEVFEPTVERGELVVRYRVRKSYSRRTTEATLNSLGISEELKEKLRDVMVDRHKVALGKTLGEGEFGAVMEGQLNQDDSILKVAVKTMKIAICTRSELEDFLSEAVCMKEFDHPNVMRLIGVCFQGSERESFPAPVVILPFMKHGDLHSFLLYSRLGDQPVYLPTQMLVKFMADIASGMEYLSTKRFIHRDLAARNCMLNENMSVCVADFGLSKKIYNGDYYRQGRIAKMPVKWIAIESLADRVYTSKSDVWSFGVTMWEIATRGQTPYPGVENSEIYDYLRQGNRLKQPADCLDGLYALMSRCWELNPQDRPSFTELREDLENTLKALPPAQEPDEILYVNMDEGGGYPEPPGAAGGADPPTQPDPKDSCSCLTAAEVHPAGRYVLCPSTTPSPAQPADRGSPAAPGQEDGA
Method in brief: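 Compound inhibition of AXL autophosphorylation was read by 4G10 immunoblot after anti-AXL immunoprecipitation from lysates. Cells: NIH3T3 lines stably carrying retroviral wild-type human AXL, treated 2 h with compound dilution series.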

| SMILES | IC50 [1] [µM] | melting point [°C] |
| --- | --- | --- |
| COc1cc2nccc(Oc3ccc(NS(=O)(=O)c4cccc(-c5ncccn5)c4)cc3C)c2cc1OC [Example A132, N-[4-(6,7-Dimethoxy-quinolin-4-yloxy)-3-methyl-phenyl]-3-pyrimidin-2-yl-benzenesulfonamide] | > 10 | 188 to 190 |
| COc1cc2nccc(Oc3ccc(NS(=O)(=O)c4cccc(Oc5ccccc5)c4)cc3F)c2cc1OC [Example A98, N-[4-(6,7-Dimethoxy-quinolin-4-yloxy)-3-fluoro-phenyl]-3-phenoxy-benzenesulfonamide] | 0.74 | 197 to 199 |
| COc1cc2nccc(Oc3ccc(NS(=O)(=O)c4ccc(OC)c5ccccc45)cc3F)c2cc1OC [Example A135, 4-Methoxy-naphthalene-1-sulfonic acid [4-(6,7-dimethoxy-quinolin-4-yloxy)-3-fluoro-phenyl]-amide] | 0.82 | 145 to 147 |
| Cc1cc(Oc2ccc(NS(=O)(=O)c3ccc(F)cc3F)cc2)c2cc(F)ccc2n1 [Example B12, 2,4-Difluoro-N-[4-(6-fluoro-2-methyl-quinolin-4-yloxy)-phenyl]-benzenesulfonamide] | > 10 | 179 to 180 |
| COc1cc2nccc(Oc3ccc(NS(=O)(=O)c4cccc(OC(F)F)c4)c(F)c3)c2cc1OC [Example A15, 3-Difluoromethoxy-N-[4-(6,7-dimethoxy-quinolin-4-yloxy)-2-fluoro-phenyl]-benzenesulfonamide] | 2.26 | 238 to 239 |
| COc1cc2nccc(Oc3ccc(NS(=O)(=O)c4cccc(-c5ncccn5)c4)cc3)c2cc1OC [Example A82, N-[4-(6,7-Dimethoxy-quinolin-4-yloxy)-phenyl]-3-pyrimidin-2-yl-benzenesulfonamide] | > 1 | 194 to 195 |
| COc1cc2nccc(Oc3ccc(NS(=O)(=O)c4csc5ccccc45)cc3OC)c2cc1OC [Example A144, Benzo[b]thiophene-3-sulfonic acid [4-(6,7-dimethoxy-quinolin-4-yloxy)-3-methoxy-phenyl]-amide] | > 10 | 144 to 146 |
| COc1cc2nccc(Oc3ccc(NS(=O)(=O)c4ccc(-c5ccccc5)s4)c(F)c3)c2cc1OC [Example A36, 5-Phenyl-thiophene-2-sulfonic acid [4-(6,7-dimethoxy-quinolin-4-yloxy)-2-fluoro-phenyl]-amide] | 2.8 | 186 to 188 |
| Cc1cc(Oc2ccc(NS(=O)(=O)c3c(F)cccc3F)c(F)c2)c2cc(F)ccc2n1 [Example B6, 2,6-Difluoro-N-[2-fluoro-4-(6-fluoro-2-methyl-quinolin-4-yloxy)-phenyl]-benzenesulfonamide] | > 10 | 188 to 190 |
| COc1cc2nccc(Oc3ccc(NS(=O)(=O)c4cc(Cl)cc(Cl)c4O)c(F)c3)c2cc1OC [Example A5, 3,5-Dichloro-N-[4-(6,7-dimethoxy-quinolin-4-yloxy)-2-fluoro-phenyl]-2-hydroxy-benzenesulfonamide] | 0.5 | 232 to 234 |
| COc1cc2nccc(Oc3ccc(NS(=O)(=O)c4ccc(Cl)cc4F)c(C)c3)c2cc1OC [Example A153, 4-Chloro-N-[4-(6,7-dimethoxy-quinolin-4-yloxy)-2-methyl-phenyl]-2-fluoro-benzenesulfonamide] | > 10 | 248 to 250 |
| Cc1cc(Oc2ccc(NS(=O)(=O)c3ccc(Cl)s3)cc2)c2cc(F)ccc2n1 [Example B18, 5-Chloro-thiophene-2-sulfonic acid [4-(6-fluoro-2-methyl-quinolin-4-yloxy)-phenyl]-amide] | > 10 | 170 to 172 |
| Cc1cc(Oc2ccc(NS(=O)(=O)C3CC3)c(F)c2)c2cc(F)ccc2n1 [Example B4, Cyclopropanesulfonic acid [2-fluoro-4-(6-fluoro-2-methyl-quinolin-4-yloxy)-phenyl]-amide] | > 10 | 189 to 190 |
| COc1cc2nccc(Oc3ccc(NS(=O)(=O)c4sc(NC(C)=O)cc4C)c(F)c3)c2cc1OC [Example A7, N-{5-[4-(6,7-Dimethoxy-quinolin-4-yloxy)-2-fluoro-phenylsulfamoyl]-4-methyl-thiophen-2-yl}-acetamide] | > 10 | 133 to 135 |
| Cc1cc(Oc2ccc(NS(=O)(=O)c3cc(Cl)cc(Cl)c3)cc2)c2cc(F)ccc2n1 [Example B10, 3,5-Dichloro-N-[4-(6-fluoro-2-methyl-quinolin-4-yloxy)-phenyl]-benzenesulfonamide] | > 10 | 238 to 240 |
| COC(=O)c1sccc1S(=O)(=O)Nc1ccc(Oc2cc(C)nc3ccc(F)cc23)cc1 [Example B17, 3-[4-(6-Fluoro-2-methyl-quinolin-4-yloxy)-phenylsulfamoyl]-thiophene-2-carboxylic acid methyl ester] | > 10 | 160 to 161 |
| COc1cc2nccc(Oc3ccc(NS(=O)(=O)c4cc(Cl)cc(Cl)c4)c(F)c3)c2cc1OC [Example A43, 3,5-Dichloro-N-[4-(6,7-dimethoxy-quinolin-4-yloxy)-2-fluoro-phenyl]-benzenesulfonamide] | < 1 | 240 to 242 |
| COc1cc2nccc(Oc3ccc(NS(=O)(=O)c4ccc(Br)cc4OC(F)(F)F)c(F)c3)c2cc1OC [Example A147, 4-Bromo-N-[4-(6,7-dimethoxy-quinolin-4-yloxy)-2-fluoro-phenyl]-2-trifluoromethoxy-benzenesulfonamide] | > 3 | 227 to 229 |

More lines, now with the values ahead:

| IC50 [1] [µM] | melting point [°C] | SMILES |
| --- | --- | --- |
| > 10 | 179 to 181 | Cc1cc(Oc2ccc(NS(=O)(=O)c3cc(F)ccc3F)c(F)c2)c2cccc(C(F)(F)F)c2n1 [Example C11, 2,5-Difluoro-N-[2-fluoro-4-(2-methyl-8-trifluoromethyl-quinolin-4-yloxy)-phenyl]-benzenesulfonamide] |
| > 10 | 187 to 188 | Cc1cc(Oc2ccc(NS(=O)(=O)c3cccc(-c4ccccc4)c3)c(F)c2)c2cccc(C(F)(F)F)c2n1 [Example C02, Biphenyl-3-sulfonic acid [2-fluoro-4-(2-methyl-8-trifluoromethyl-quinolin-4-yloxy)-phenyl]-amide] |
| 0.181 | 136 to 138 | COc1cc2c(Oc3ccc(NS(=O)(=O)c4ccc(Cl)cc4F)cc3F)ccnc2cc1OCCCN1CCCC(C)C1 (stereo not shown) [Example D24, 4-Chloro-2-fluoro-N-(3-fluoro-4-{6-methoxy-7-[3-(3-methyl-piperidin-1-yl)-propoxy]-quinolin-4-yloxy}-phenyl)-benzenesulfonamide] |
| 0.15 | 175 to 177 | COc1cc2c(Oc3ccc(NS(=O)(=O)c4ccccc4Br)cc3F)ccnc2cc1OCCN1CCOCC1 [Example D26, 2-Bromo-N-{3-fluoro-4-[6-methoxy-7-(2-morpholin-4-yl-ethoxy)-quinolin-4-yloxy]-phenyl}-benzenesulfonamide] |
| 0.271 | 181 to 183 | COc1cc2c(Oc3ccc(NS(=O)(=O)c4ccccc4OC(F)(F)F)cc3F)ccnc2cc1OCCCNC(=O)OC(C)(C)C [Example D16, (3-{4-[2-Fluoro-4-(2-trifluoromethoxy-benzenesulfonylamino)-phenoxy]-6-methoxy-quinolin-7-yloxy}-propyl)-carbamic acid tert-butyl ester] |
| 0.211 | 139 to 142 | COc1cc2c(Oc3ccc(NS(=O)(=O)c4ccccc4C#N)cc3F)ccnc2cc1OCCCN1CCC(C)CC1 [Example D23, 2-Cyano-N-(3-fluoro-4-{6-methoxy-7-[3-(4-methyl-piperidin-1-yl)-propoxy]-quinolin-4-yloxy}-phenyl)-benzenesulfonamide] |
| > 10 | 128 to 130 | COc1ccc(S(=O)(=O)Nc2ccc(Oc3cc(C)nc4c(C(F)(F)F)cccc34)c(F)c2)cc1F [Example C09, 3-Fluoro-N-[3-fluoro-4-(2-methyl-8-trifluoromethyl-quinolin-4-yloxy)-phenyl]-4-methoxy-benzenesulfonamide] |
| 0.32 | 103 to 104 | COc1cc2c(Oc3ccc(NS(=O)(=O)c4cccc(-c5ccccc5)c4)cc3F)ccnc2cc1OCCN1CCOCC1 [Example D04, Biphenyl-3-sulfonic acid {3-fluoro-4-[6-methoxy-7-(2-morpholin-4-yl-ethoxy)-quinolin-4-yloxy]-phenyl}-amide] |
